Measured values published in PubChem BioAssay (NCI).
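Test compounds were applied to cells in 96-well plates for 48 hours at 5 doses. TGI denotes the concentration required for complete inhibition of growth.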

Tests used:
Test in all cases: NCI tumour cell line growth inhibition, 48 h
786-0 renal = test system: 786-0 renal
A498 renal = test system: A498 renal
A549 NSCLC = test system: A549 NSCLC
ACHN renal = test system: ACHN renal
CAKI-1 renal = test system: CAKI-1 renal
CCRF-CEM leukemia = test system: CCRF-CEM leukemia
COLO 205 colon = test system: COLO 205 colon
DLD-1 colon = test system: DLD-1 colon
DMS 114 small cell lung = test system: DMS 114 small cell lung
DMS 273 small cell lung = test system: DMS 273 small cell lung
EKVX NSCLC = test system: EKVX NSCLC
HCC-2998 colon = test system: HCC-2998 colon
HCT-116 colon = test system: HCT-116 colon
HCT-15 colon = test system: HCT-15 colon
HL-60(TB) leukemia = test system: HL-60(TB) leukemia
HOP-18 NSCLC = test system: HOP-18 NSCLC
HOP-62 NSCLC = test system: HOP-62 NSCLC
HOP-92 NSCLC = test system: HOP-92 NSCLC
HT29 colon = test system: HT29 colon
IGROV1 ovarian = test system: IGROV1 ovarian
K-562 leukemia = test system: K-562 leukemia
KM12 colon = test system: KM12 colon
KM20L2 colon = test system: KM20L2 colon
LOX IMVI melanoma = test system: LOX IMVI melanoma
LXFL 529 NSCLC = test system: LXFL 529 NSCLC
M14 melanoma = test system: M14 melanoma
M19-MEL melanoma = test system: M19-MEL melanoma
MALME-3M melanoma = test system: MALME-3M melanoma
MOLT-4 leukemia = test system: MOLT-4 leukemia
NCI-H226 lung = test system: NCI-H226 lung
NCI-H23 lung = test system: NCI-H23 lung
NCI-H460 lung = test system: NCI-H460 lung
NCI-H522 lung = test system: NCI-H522 lung
OVCAR-3 ovarian = test system: OVCAR-3 ovarian
OVCAR-4 ovarian = test system: OVCAR-4 ovarian
OVCAR-5 ovarian = test system: OVCAR-5 ovarian
OVCAR-8 ovarian = test system: OVCAR-8 ovarian
RPMI-8226 leukemia = test system: RPMI-8226 leukemia
RXF 393 renal = test system: RXF 393 renal
RXF-631 renal = test system: RXF-631 renal
SF-268 CNS = test system: SF-268 CNS
SF-295 CNS = test system: SF-295 CNS
SF-539 CNS = test system: SF-539 CNS
SK-MEL-2 melanoma = test system: SK-MEL-2 melanoma
SK-MEL-28 melanoma = test system: SK-MEL-28 melanoma
SK-MEL-5 melanoma = test system: SK-MEL-5 melanoma
SK-OV-3 ovarian = test system: SK-OV-3 ovarian
SN12C renal = test system: SN12C renal
SNB-19 CNS = test system: SNB-19 CNS
SNB-75 CNS = test system: SNB-75 CNS
SNB-78 CNS = test system: SNB-78 CNS
SR leukemia = test system: SR leukemia
SW-620 colon = test system: SW-620 colon
TK-10 renal = test system: TK-10 renal
U251 CNS = test system: U251 CNS
UACC-257 melanoma = test system: UACC-257 melanoma
UACC-62 melanoma = test system: UACC-62 melanoma
UO-31 renal = test system: UO-31 renal
XF 498 CNS = test system: XF 498 CNS

## O=C(O)/C=C\C(=O)c1ccc(Cl)cc1
786-0 renal
  TGI: > 78.7 µM
A498 renal
  TGI: > 100 µM
A549 NSCLC
  TGI: > 100 µM
ACHN renal
  TGI: 73.3 µM
CAKI-1 renal
  TGI: 47.2 µM
CCRF-CEM leukemia
  TGI: 48.7 µM
COLO 205 colon
  TGI: 34.9 µM
DLD-1 colon
  TGI: > 100 µM
DMS 114 small cell lung
  TGI: 55.4 µM
DMS 273 small cell lung
  TGI: > 31.6 µM
EKVX NSCLC
  TGI: > 94 µM
HCC-2998 colon
  TGI: > 100 µM
HCT-116 colon
  TGI: > 58.8 µM
HCT-15 colon
  TGI: 50.2 µM
HL-60(TB) leukemia
  TGI: 58.5 µM
HOP-18 NSCLC
  TGI: > 100 µM
HOP-62 NSCLC
  TGI: > 100 µM
HOP-92 NSCLC
  TGI: 47.8 µM
HT29 colon
  TGI: > 64.9 µM
IGROV1 ovarian
  TGI: > 100 µM
K-562 leukemia
  TGI: 82.8 µM
KM12 colon
  TGI: 98.9 µM
KM20L2 colon
  TGI: > 74.7 µM
LOX IMVI melanoma
  TGI: > 61.7 µM
LXFL 529 NSCLC
  TGI: 48.4 µM
M14 melanoma
  TGI: 33.2 µM
M19-MEL melanoma
  TGI: 55.8 µM
MALME-3M melanoma
  TGI: 34.5 µM
MOLT-4 leukemia
  TGI: 49 µM
NCI-H226 lung
  TGI: > 87.6 µM
NCI-H23 lung
  TGI: > 86.7 µM
NCI-H460 lung
  TGI: > 100 µM
NCI-H522 lung
  TGI: > 100 µM
OVCAR-3 ovarian
  TGI: > 73.3 µM
OVCAR-4 ovarian
  TGI: > 100 µM
OVCAR-5 ovarian
  TGI: > 100 µM
OVCAR-8 ovarian
  TGI: > 100 µM
RPMI-8226 leukemia
  TGI: 66.7 µM
RXF 393 renal
  TGI: 40.5 µM
RXF-631 renal
  TGI: > 100 µM
SF-268 CNS
  TGI: > 71.1 µM
SF-295 CNS
  TGI: > 100 µM
SF-539 CNS
  TGI: 54.2 µM
SK-MEL-2 melanoma
  TGI: > 76.8 µM
SK-MEL-28 melanoma
  TGI: 34.7 µM
SK-MEL-5 melanoma
  TGI: > 100 µM
SK-OV-3 ovarian
  TGI: > 100 µM
SN12C renal
  TGI: > 100 µM
SNB-19 CNS
  TGI: > 100 µM
SNB-75 CNS
  TGI: > 79 µM
SNB-78 CNS
  TGI: > 100 µM
SR leukemia
  TGI: 52.2 µM
SW-620 colon
  TGI: 50.1 µM
TK-10 renal
  TGI: > 100 µM
U251 CNS
  TGI: > 100 µM
UACC-257 melanoma
  TGI: 38 µM
UACC-62 melanoma
  TGI: > 75.4 µM
UO-31 renal
  TGI: 99.8 µM
XF 498 CNS
  TGI: > 76.6 µM
